Results on 5 compounds are retold here after patent EP0882732B1, “Taxoid derivative and method of producing thereof” (Ensuiko Sugar Refining Company, Limited, priority 1997, dated 1998).

Data set [1] in a line: Stability in aqueous solution. Type of data set: physicochemical. Particulars: decomposed to paclitaxel. The text has this: As clearly shown in the Table compared with paclitaxel, the solubility of paclitaxel derivatives show strikingly high values.
Data set [2] concerns tubulin (a main constituting protein of the microtubule). In words: Tubulin polymerization-promoting / depolymerization-inhibiting activity (absorbance at 350 nm). In kind it is biochemical. Particulars: for Depolymerization-inhibiting activity / Polymerization-promoting activity: relative activity, paclitaxel taken as 100, 5µM; for Depolymerization-inhibiting activity: absorbance at 350 nm 5 minutes after addition of calcium chloride; for Polymerization-promoting activity: tubulin, 37°C, 15 minutes, absorbance at 350 nm. As for the experimental part:
Next, each of the above-described samples is mixed with tubulin (a main constituting protein of the microtubule) and allowed to react at 37°C for 15 minutes. Absorbance at 350 nm of the reaction solution was measured at 2, 5, 10 and 15 minutes after initiation of the reaction. Also, after the reaction ended, calcium chloride was added and. 5 minutes after its addition, absorbance at 350 nm was again measured. From each measured value the relative activity of each sample was determined such that polymerization-promoting activity and depolymerization - inhibiting activity were taken as 100, and the results are shown in Table 2.

Data set [3] can be described thus: Solubility in water (stirred in water, filtrate analysed by HPLC). As for the experimental part: After stirring, the supernatant was filtered by a membrane filter (0.45µm) and a filtate was analyzed by HPLC.
The conditions of data set [4]: I.Ringer et al., J. Natl. Cancer Inst., 83, 288 (1991); cited from earlier work.
Setting [5] is: in water, 10 mg in 5 ml water, stirred for 18 hours, filtered 0.45µm, HPLC.

Values after ≈ are worked out from the molar mass of the structure shown.

As for `CC(=O)O[C@H]1C(=O)[C@@]2(C)[C@H]([C@H](OC(=O)c3ccccc3)[C@]3(O)C[C@H](OC(=O)[C@H](OC(=O)COC4O[C@H](CO)[C@@H](O)[C@H](O)[C@H]4O)[C@@H](NC(=O)c4ccccc4)c4ccccc4)C(C)=C1C3(C)C)[C@]1(OC(C)=O)CO[C@@H]1C[C@@H]2O` (some centres unmarked) [2'-S-paclitaxel, Glucosyloxyacetyl-2'-paclitaxel], the “stability in aqueous solutions” value in data set [1] is recorded as “unstable in aqueous solutions”. Besides, in data set [2], the Depolymerization-inhibiting activity was determined as 100 and the Polymerization-promoting activity was found to be 52.7. Further, in data set [3], the “solubility in water relative to paclitaxel” value stood at 76.5 times. This compound came in with a Solubility in data set [3] (setting [5]) of 30.6 µg/mL (≈ 28.5 µM).
As to `CC(=O)O[C@H]1C(=O)[C@]2(C)[C@@H](OC(=O)COC3O[C@H](CO)[C@@H](O)[C@H](O)[C@H]3O)C[C@H]3OC[C@@]3(OC(C)=O)[C@H]2[C@H](OC(=O)c2ccccc2)[C@]2(O)C[C@H](OC(=O)[C@H](OC(=O)COC3O[C@H](CO)[C@@H](O)[C@H](O)[C@H]3O)[C@@H](NC(=O)c3ccccc3)c3ccccc3)C(C)=C1C2(C)C` (some centres unmarked) [2',7-S-paclitaxel, Diglucosyloxyacetyl-2',7-paclitaxe], the “stability in aqueous solutions” value in data set [1] is listed as “unstable in aqueous solutions”. Moreover, in data set [2], the Depolymerization-inhibiting activity came to 77.7 and the Polymerization-promoting activity is 40.5. Moreover, the “solubility in water relative to paclitaxel” value in data set [3] came out at 121 times. The compound also yielded a Solubility in data set [3] (setting [5]) of 48.4 µg/mL (≈ 37.4 µM).
Take `CC(=O)O[C@H]1C(=O)[C@]2(C)[C@@H](OC(=O)COC3O[C@H](CO)[C@@H](O)[C@H](O)[C@H]3O)C[C@H]3OC[C@@]3(OC(C)=O)[C@H]2[C@H](OC(=O)c2ccccc2)[C@]2(O)C[C@H](OC(=O)[C@H](O)[C@@H](NC(=O)c3ccccc3)c3ccccc3)C(C)=C1C2(C)C` (some centres unmarked) [7-S-paclitaxel, Glucosyloxyacetyl-7-paclitaxel]: in data set [2], the Depolymerization-inhibiting activity came out at 225 and the Polymerization-promoting activity is reported as 91.9. In addition, in data set [2] (statement in words, comparison with paclitaxel), the “depolymerization-inhibiting activity compared with paclitaxel” value is listed as “more than twice as potent as that of paclitaxel”. In addition, in data set [3], the “solubility in water relative to paclitaxel” value is 36.8 times. Further, the Solubility in data set [3] (setting [5]) turned out to be 14.7 µg/mL (≈ 13.7 µM).
Regarding `CC(=O)O[C@H]1C(=O)[C@@]2(C)[C@H]([C@H](OC(=O)c3ccccc3)[C@]3(O)C[C@H](OC(=O)[C@H](O)[C@@H](NC(=O)c4ccccc4)c4ccccc4)C(C)=C1C3(C)C)[C@]1(OC(C)=O)CO[C@@H]1C[C@@H]2O` [Paclitaxel, reference compound], in data set [2], the Depolymerization-inhibiting activity was determined as 100 and the Polymerization-promoting activity came out at 100. This compound also returned a Solubility in data set [3] (18 h) of 0.4 µg/mL (≈ 0.468 µM). The compound further gave a solubility at 18 h in data set [3] (water, thermodynamic from solid) of 0.4 µg/mL (≈ 0.468 µM).
As for `CC(=O)O[C@@]12CO[C@@H]1C[C@H](O)[C@@]1(C)C(=O)[C@H](O)C3=C(C)[C@@H](OC(=O)[C@H](O)[C@@H](NC(=O)OC(C)(C)C)c4ccccc4)C[C@@](O)([C@@H](OC(=O)c4ccccc4)[C@H]21)C3(C)C` [docetaxel], the “solubility of docetaxel in water relative to paclitaxel” value in data set [4] is 1.3 times.

One may read the Solubility as the dissolved amount per volume that the medium holds. Low readings indicate a poorly soluble substance, high ones a readily soluble substance. As usually defined, the solubility is how much of the substance goes into solution per volume. Low readings indicate little dissolved substance, high ones much dissolved substance.
